Data: patent publication US20150126609A1, “PHARMACEUTICAL COMPOSITION COMPRISING 11-DEOXY -PROSTAGLANDIN COMPOUND AND METHOD FOR STABILIZING THE COMPOUND” (R-TECH UENO, LTD., priority 2007, published 2015)

Key:
[1] = Stability of Compound 1 in vehicle stored at 55° C., amount determined by HPLC; type: physicochemical; settings: for day 10, percentage based on the theoretical amount (250 μg/g): stored at 55° C.
Experimental: Compound 1 was dissolved in a vehicle shown in table 1 below to give 250 μg/g solution. Then, the solution was put in a hard grass container and heated at 55° C. The precise amount of Compound 1 in the solution was determined by means of HPLC (day 0). The container was kept at 55° C. for 10 days and after that the precise amount of the compound 1 was determined by means of HPLC (day 10).
The determination of the amount of the compound was carried out as follows. About 0.2 g of the sample was mixed with exactly 2 mL of internal standard solution and then with a dissolving agent shown in Table 1 to give 5 ml of sample solution. About 5 mg of the reference standard compound 1 was weighted precisely and added with acetonitrile to give exactly 50 mL solution. Exactly 1 ml of the solution was obtained and added with exactly 4 mL of the internal standard solution, and then added with the dissolving agent to give 10 mL of reference solution.
The fluorescent labeling agent was added to the respective solution, stirred and stood at room temperature for more than 30 minutes. After that, 2% acetic acid in acetonitrile was added to the solution, stirred and reacted at room temperature for more 30 minutes to give the sample and standard solutions. Then, the respective solution in an amount that theoretically gives 3.6 ng of compound 1 was loaded on the column and analyzed under the condition as follows:
(§1) Column: 5 mm×25 cm stainless steel column packed with octadecylsilane treated silica gel for HPLC (5 μm)
Mobile phase: mixture of acetonitrile (HPLC grade) and perchlorate buffer
(§2) Detector: spectrophotofluorometer
According to the same manner as described in Example 1, stability of the compound 1 in various vehicles was measured.

[2] = Stability of Compound 1 in soft gelatin capsules (sugar alcohol plasticizer) on storage, amount determined by HPLC; type: physicochemical
Experimental: Sugar alcohol solution derived from corn starch 60 parts by weight was added in an appropriate amount of water, stirred and heated. Then, gelatin 100 parts by weight was added thereto to give gelatin solution. Compound 1 was dissolved in medium chain fatty acid triglyceride (USP/NF grade) to give a liquid mixture containing 120 μg/g of compound 1. The gelatin solution and the liquid mixture were loaded on a soft capsule forming and filling machine to give capsule containing the liquid mixture, and dried to give soft gelatin capsule with an appropriate hardness.
The soft gelatin capsules obtained in the formulation example were kept at 40° C. for 6 months or at 55° C. for one month. After that, 20 capsules were swelled with purified water and ethyl acetate (HPLC grade) 10 ml was added thereto. The capsule was then cut opened and the liquid contained therein was obtained. 1 ml of the internal standard solution per 100 μg of theoretical amount of compound 1 was added to the liquid, and ethyl acetate (HPLC grade) was added so that the theoretical concentration of compound 1 was 10 μg/mL to give a sample solution.
On the other hand, about 0.025 g of standard Compound 1 was precisely weighted and added with ethyl acetate (HPLC grade) to give exactly 100 mL solution. 2 mL of the solution was measured, exactly 5 mL of the internal standard solution was added thereto and ethyl acetate (HPLC grade) was added so that the total amount was 50 mL to give the standard compound 1 solution.
The fluorescent labeling agent was added to the sample and standard solutions, stirred and reacted at room temperature.
The respective solution in an amount that theoretically gives 3.6 ng of compound 1 was loaded on the column and analyzed under the condition as follows: HPLC analysis condition:
as §1
Mobile phase: mixture of acetonitrile HPLC grade: methanol HPLC grade: ammonium acetate (0.05 mol/L)
as §2
The amount of the compound 1 in the sample solution was determined by using a one point calibration curve.

Question: With `CCCCC(F)(F)C(=O)CCC1CCC(=O)C1CCCCCCC(=O)O` (stereo not shown) [Compound 1, 11-deoxy-13,14-dihydro-15-keto-16,16-difluoro PGE1] as the molecule, how does the “stability on admixing with a fatty acid ester” value ([1]; admixed with a fatty acid ester such as glyceride, 55° C., 10 days) read?
Answer: significantly improved

Question: And the “stability in polyol, sugar, sugar alcohol, polyethylene glycol, polysorbate 80 and fatty acid” value ([1]; in polyol such as glycerine, sugar, sugar alcohol, polyethylene glycol, polysorbate 80, and fatty acid, 55° C., 10 days)?
Answer: poor

Question: And the “day 0, percentage based on the theoretical amount (250 μg/g)” value (shortened to “day 0, percentage based”) ([1]; no vehicle (compound 1 only), 55° C.)?
Answer: 95.4%

Question: What about the “day 10, percentage based on the theoretical amount (250 μg/g)” value (shortened to “day 10, percentage based”) ([1]; no vehicle (compound 1 only)) of the same molecule?
Answer: 82.8%

Question: And the “day 0, percentage based” value ([1]; vehicle Macrogol 400 (polyethyleneglycol), 55° C.)?
Answer: 92.2%

Question: What about the “day 10, percentage based” value ([1]; vehicle Macrogol 400 (polyethyleneglycol)) of the same molecule?
Answer: 80.7%

Question: What about the “day 0, percentage based” value ([1]; vehicle concentrated glycerin, 55° C.) of the same molecule?
Answer: 20.9%

Question: And the “day 10, percentage based” value ([1]; vehicle concentrated glycerin)?
Answer: 20.0%

Question: And the “day 0, percentage based” value ([1]; vehicle corn oil, 250 μg/g solution, 55° C.)?
Answer: 93.1%

Question: And the “day 10, percentage based” value ([1]; vehicle corn oil, 250 μg/g solution)?
Answer: 94.8%

Question: And the “day 0, percentage based” value ([1]; vehicle glycerine fatty acid ester (Inwitor 742), 250 μg/g solution, 55° C.)?
Answer: 93.3%

Question: And the “day 10, percentage based” value ([1]; vehicle glycerine fatty acid ester (Inwitor 742), 250 μg/g solution)?
Answer: 96.4%

Question: And the “day 0, percentage based” value ([1]; vehicle hydrogenated maltose starch syrup, 55° C.)?
Answer: 5.1%

Question: What about the “day 10, percentage based” value ([1]; vehicle hydrogenated maltose starch syrup) of the same molecule?
Answer: 3.5%

Question: What about the “day 0, percentage based” value ([1]; vehicle isopropyl palmitate, 250 μg/g solution, 55° C.) of the same molecule?
Answer: 93.9%

Question: And the “day 10, percentage based” value ([1]; vehicle isopropyl palmitate, 250 μg/g solution)?
Answer: 96.7%

Question: And the “day 0, percentage based” value ([1]; vehicle medium chain fatty acid triglyceride (Miglyol 812N), 250 μg/g solution, 55° C.)?
Answer: 94.1%

Question: What about the “day 10, percentage based” value ([1]; vehicle medium chain fatty acid triglyceride (Miglyol 812N), 250 μg/g solution) of the same molecule?
Answer: 97.0%

Question: And the “day 0, percentage based” value ([1]; vehicle oleic acid, 55° C.)?
Answer: 61.9%

Question: And the “day 10, percentage based” value ([1]; vehicle oleic acid)?
Answer: 51.6%

Question: And the “day 0, percentage based” value ([1]; vehicle polysorbate 80, 55° C.)?
Answer: 92.1%

Question: And the “day 10, percentage based” value ([1]; vehicle polysorbate 80)?
Answer: 64.5%

Question: What about the “day 0, percentage based” value ([1]; vehicle propyleneglycol fatty acid ester (Rikemal PO-100V), 250 μg/g solution, 55° C.) of the same molecule?
Answer: 93.9%

Question: And the “day 10, percentage based” value ([1]; vehicle propyleneglycol fatty acid ester (Rikemal PO-100V), 250 μg/g solution)?
Answer: 92.1%

Question: What about the “day 0, percentage based” value ([1]; vehicle soy oil, 250 μg/g solution, 55° C.) of the same molecule?
Answer: 98.2%

Question: And the “day 10, percentage based” value ([1]; vehicle soy oil, 250 μg/g solution)?
Answer: 94.6%

Question: And the “day 0, percentage based” value ([1]; vehicle sugar alcohol solution derived from corn starch, 55° C.)?
Answer: 3.8%

Question: What about the “day 10, percentage based” value ([1]; vehicle sugar alcohol solution derived from corn starch) of the same molecule?
Answer: 5.6%

Question: And the “amounts of compound 1 (% vs day 0), Initial” value ([2]; soft gelatin capsule, gelatin 100 / sugar alcohol solution 60, 120 μg/g in medium chain fatty acid triglyceride, 40° C.)?
Answer: 100 % vs day 0

Question: What about the “amounts of compound 1 (% vs day 0), Initial” value ([2]; soft gelatin capsule, gelatin 100 / sugar alcohol solution 60, 120 μg/g in medium chain fatty acid triglyceride, 55° C.) of the same molecule?
Answer: 100 % vs day 0

Question: What about the “amounts of compound 1 (% vs day 0), 1 mo” value ([2]; soft gelatin capsule, gelatin 100 / sugar alcohol solution 60, 120 μg/g in medium chain fatty acid triglyceride, stored at 40° C., 1 mo) of the same molecule?
Answer: 99.8 % vs day 0

Question: What about the “amounts of compound 1 (% vs day 0), 3 mo” value ([2]; soft gelatin capsule, gelatin 100 / sugar alcohol solution 60, 120 μg/g in medium chain fatty acid triglyceride, stored at 40° C., 3 mo) of the same molecule?
Answer: 98.0 % vs day 0

Question: And the “amounts of compound 1 (% vs day 0), 6 mo” value ([2]; soft gelatin capsule, gelatin 100 / sugar alcohol solution 60, 120 μg/g in medium chain fatty acid triglyceride, stored at 40° C., 6 mo)?
Answer: 98.8 % vs day 0

Question: What about the “amounts of compound 1 (% vs day 0), 1 w” value ([2]; soft gelatin capsule, gelatin 100 / sugar alcohol solution 60, 120 μg/g in medium chain fatty acid triglyceride, stored at 55° C., 1 w) of the same molecule?
Answer: 100.2 % vs day 0

Question: What about the “amounts of compound 1 (% vs day 0), 2 w” value ([2]; soft gelatin capsule, gelatin 100 / sugar alcohol solution 60, 120 μg/g in medium chain fatty acid triglyceride, stored at 55° C., 2 w) of the same molecule?
Answer: 100.1 % vs day 0

Question: What about the “amounts of compound 1 (% vs day 0), 4 w” value ([2]; soft gelatin capsule, gelatin 100 / sugar alcohol solution 60, 120 μg/g in medium chain fatty acid triglyceride, stored at 55° C., 4 w) of the same molecule?
Answer: 99.5 % vs day 0

Question: What about the “effect of sugar alcohol solution/polyol on stability when used as plasticizer” value ([2]; sugar alcohol solution/polyol used as plasticizer of soft gelatin capsule shell) of the same molecule?
Answer: will not affect the stability
